Measured values from patent US8669377B2, “Anti-human urothelial carcinoma of supercritical carbon dioxide extract of Cinnamomum subavenium, and the preparation process and uses” (Kaohsiung Medical University, priority 2011, dated 2014).
Like-named read-outs stand apart in the source and are kept apart here.

Experiments:
[1] = system: human urothelial carcinoma cell line NTUB1; experiment: MTT cytotoxicity assay, NTUB1; type: cell-based
Procedure: (§1) Cytotoxicity assay was performed by using C. subavenium supercritical CO2 extract obtained according to the preparation method mentioned above. […] C. subavenium supercritical CO2 extract selectively functioned on NTUB1 carcinoma cells rather than the normal cells.
(§2) Cellular cytotoxicity of tested compounds was performed by using a MTT (3-[4,5-dimethylthiazol-2-yl]-2,5-diphenyltetrazolium bromide) assay. Briefly, the cells were plated with a density of 1×10^3 cells/well in 96-well plates and incubated at 37° C. overnight before drug treatment. Cells were then cultured in the absence or presence of various concentrations (0.3, 1, 3, 6, 9, 12, 15 and 20 μM) of subamolide A at 37° C. for 72 hours. Subsequently, 50 μL of MTT (2 mg/mL in PBS) was added to each well and allowed to react for another 4 hours. Following centrifugation at 1000×g for 10 minutes, media were removed and 150 μL DMSO were added to each well. The proportions of surviving cells were determined by absorbance spectrometry at 540 nm using a microplate reader. The cell viability was expressed as the survival ratio to the un-treated control. The IC50 values of each group were calculated by the median inhibitory analysis and presented as means±SD. The combinational effects of two compounds were analyzed by median-effect analysis. To evaluate the combined effects in growth inhibition, a corresponding combination index (CI) was adopted for the measurement. The combination index of <1, =1, or >1 denotes synergic, additive, or antagonistic effect, respectively.

NTUB1 cells [2] = experiment: Cell cycle / sub-G1 apoptotic fraction by flow cytometry; type: cell-based, human; details: 24 hours
NTUB1 cells [3] = experiment: Immunoblotting of cellular proteins; type: cell-based, human
[4] = system: urothelial carcinoma cells T24; experiment: MTT cytotoxicity assay, T24; type: cell-based, human; details: T24, 72 hours; read-out: IC50 (reduction of growth)
Procedure: as §2

NTUB1 cells [5] = experiment: Combinational cytotoxicity (MTT, combination index, median-effect analysis); type: cell-based, human; details: 24, 48, 72 hours
Procedure: as §2, with “respectively. […]” for “respectively.”

[6] = system: normal urothelial cell line SV-HUC-1; experiment: MTT cytotoxicity assay, SV-HUC-1; type: cell-based, human; details: SV-HUC-1, 72 hours; read-out: IC50 (reduction of growth)
Procedure: as §1
as §2, with “To evaluate the combined effects in growth inhibition, a corresponding combination index (CI) was adopted for the measurement. The combination index of <1, =1, or >1 denotes synergic, additive, or antagonistic effect, respectively.” left out

NTUB1 cells [7] = experiment: Intracellular ROS (DCFH-DA flow cytometry), NTUB1; type: cell-based, human; details: NTUB1, 10 μM, compared with control cells
Procedure: (§3) Production of ROS was analyzed by flow cytometry. Briefly, cells were plated in 6-well plates, and dichlorofluorescein diacetate (DCFH-DA, […]) were added to the treated cells 30 minutes prior to harvest. The cells were collected by trypsinization and washed with PBS. The green fluorescence of intracellular DCF (2′,7′-dichlorofluorescein) was then analyzed by FACScan™ flow cytometer with a 525-nm band pass filter. The ROS production efficiency (M1 ratio) was calculated as “[counts of treated sample in M1−counts of control in M1]/counts of control in M1×100”.

SV-HUC-1 cells = experiment: Intracellular ROS (DCFH-DA flow cytometry), SV-HUC-1; type: cell-based, human; details: SV-HUC-1, 10 μM, compared with control cells
Procedure: as §3

[8] = system: prostate cancer cells PC3; experiment: MTT cytotoxicity assay, PC3; type: cell-based, human; details: PC3, 72 hours; read-out: IC50 (reduction of growth)
Procedure: as §2

N.N.[Cl][Pt][Cl] [CDDP, cis-diamminedichloridoplatinum]
IC50 ([1]; 72 hours, 1×10^3 cells/well (data not shown), read-out: IC50 to NTUB1 cells): 3 µM

Nc1ccn([C@@H]2O[C@H](CO)[C@@H](O)C2(F)F)c(=O)n1 [Gem, 4-amino-1-(2-deoxy-2,2-difluoro-β-D-erythro-pentofuranosyl)-pyrimidin-2(1H)-on]
IC50 ([1]; Homo sapiens, NTUB1, 72 hours, 1×10^3 cells/well (data not shown), read-out: IC50 to NTUB1 cells): 0.008 µM

(3Z,4R,5R)-3-tetradecylidene-4-hydroxy-5-methoxy-5-methylbutanolide [subamolide A]
sub-G1 apoptotic fraction (NTUB1 cells [2]; 1 μM): 5%
sub-G1 apoptotic fraction (NTUB1 cells [2]; 5 μM): 10.8%
sub-G1 apoptotic fraction (NTUB1 cells [2]; 10 μM): 21.9%
Bax/Bcl-2 ratio, fold of change (NTUB1 cells [3]; 10 μM): two-fold increase
cytochrome c released from mitochondria to cytosol, fold of change (NTUB1 cells [3]; 10 μM): 2.3 folds
ERK1/2 activation (immunoblot) (NTUB1 cells [3]; 10 μM, 24 hours, not p38 or JNK): specifically activated
p53 protein and phosphorylation of p53 at serine 15 (NTUB1 cells [3]; NTUB1 cells): induced
pro-caspase 3 and 116 kDa full length PARP proteins (NTUB1 cells [3]; with increased concentration): decreased
IC50 [4]: 7.6 ± 0.96 µM
combinational effect with CDDP (NTUB1 cells [5]; subamolide A 0, 1, 5, 10 μM + CDDP 1 and 3 μM): synergism
combinational effect with Gem (NTUB1 cells [5]; subamolide A 0, 1, 5, 10 μM + Gem 2 and 8 nM): synergism
IC50 ([1]; NTUB1, 72 hours, read-out: IC50 (reduction of growth)): 7.26 ± 0.67 µM
IC50 [6]: 18.1 ± 1.03 µM
ROS M1 ratio (NTUB1 cells [7]): −14.7±0.99%
ROS M1 ratio (SV-HUC-1 cells): −11.6±1.41%
IC50 [8]: 10.1 ± 0.59 µM
